Experimental data published in the supplement of paper PMC11061612.

How the values were obtained:
Experiment in all cases: combination Emax (second highest fraction inhibited in the dose matrix, 72 h); higher = more inhibition; extreme values may be limits of the assay
NH-12 (Neuroblastoma) = tested on: NH-12 (Neuroblastoma)
In short: (§1)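 Cell lines in DMEM/F12 or RPMI with 10% FBS were plated in 1536-well plates, held 24 hours at 37°C, 5% CO2, then given two-drug dose matrices for 72 hours (DMSO typically 0.2%). Viability was read by CellTiter-Glo 2.0 luminescence and scaled as inhibition from 0 (vehicle wells) to 1 (blank wells). Combination Emax is the second-highest inhibition in the matrix; Bliss excess is observed combination effect minus expected EA + EB − EA·EB, EA and EB being single-agent effects.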

[1] = tested on: NCI-H1573 (Lung Adenocarcinoma)
In short: as §1

[2] = tested on: LC4-1 (B-Lymphoblastic Leukemia)
In short: as §1

[3] = tested on: DG-75 (Burkitt's Lymphoma)
In short: as §1

[4] = tested on: KP-2 (Pancreatic Carcinoma)
In short: as §1

EW-3 (Ewing's Sarcoma) = tested on: EW-3 (Ewing's Sarcoma)
In short: as §1

[5] = tested on: VMRC-LCD (Lung Adenocarcinoma)
In short: as §1

[6] = tested on: SCC-9 (Oral Cavity Carcinoma)
In short: as §1

[7] = tested on: HuP-T3 (Pancreatic Carcinoma)
In short: as §1

[8] = tested on: H-EMC-SS (Chondrosarcoma)
In short: as §1

A704 (Kidney Carcinoma) = tested on: A704 (Kidney Carcinoma)
In short: as §1

[9] = tested on: HC-1 (Other Blood Carcinomas)
In short: as §1

[10] = tested on: BV-173 (Chronic Myelogenous Leukemia)
In short: as §1

[11] = tested on: SNU-C1 (Colorectal Carcinoma)
In short: as §1

COc1nnc2ccc(N3CCC(c4ccc(OCCN5CCN(C)C(=O)[C@H]5C)cc4)CC3)nn12 [AZD5153] + C=CCn1c(=O)c2cnc(Nc3ccc(N4CCN(C)CC4)cc3)nc2n1-c1cccc(C(C)(C)O)n1 [AZD1775] (first compound max 1 µM, partner max 1 µM)
combination Emax (NH-12 (Neuroblastoma)): 0.91
combination Emax [1]: 0.637
combination Emax [2]: 0.941
combination Emax [3]: 0.905
combination Emax [4]: 0.437
combination Emax (EW-3 (Ewing's Sarcoma)): 0.622
combination Emax [5]: 0.943
combination Emax [6]: 0.518
combination Emax [7]: 0.584
combination Emax [8]: 0.23
combination Emax (A704 (Kidney Carcinoma)): 0.652
combination Emax [9]: 0.948
combination Emax [10]: 0.931
combination Emax [11]: 0.546

COc1nnc2ccc(N3CCC(c4ccc(OCCN5CCN(C)C(=O)[C@H]5C)cc4)CC3)nn12 [AZD5153] + CC1(C)CCC(CN2CCN(c3ccc(C(=O)NS(=O)(=O)c4ccc(NCC5CCOCC5)c([N+](=O)[O-])c4)c(Oc4cnc5[nH]ccc5c4)c3)CC2)=C(c2ccc(Cl)cc2)C1 [Venetoclax] (first compound max 1 µM, 7x7, partner max 1 µM)
combination Emax (NH-12 (Neuroblastoma)): 0.737
combination Emax [1]: 0.356
combination Emax [2]: 1
combination Emax [3]: 0.887
combination Emax [4]: 0.354
combination Emax (EW-3 (Ewing's Sarcoma)): 0.751
combination Emax [5]: 0.489
combination Emax [6]: 0.407
combination Emax [7]: 0.517
combination Emax [8]: 0.27
combination Emax (A704 (Kidney Carcinoma)): 0.585
combination Emax [9]: 0.557
combination Emax [10]: 0.921
combination Emax [11]: 0.46

COc1nnc2ccc(N3CCC(c4ccc(OCCN5CCN(C)C(=O)[C@H]5C)cc4)CC3)nn12 [AZD5153] + CCN(CCO)CCCOc1ccc2c(Nc3cc(CC(=O)Nc4cccc(F)c4)[nH]n3)ncnc2c1 [AZD2811] (first compound max 1 µM, 7x7, partner max 1 µM)
combination Emax (NH-12 (Neuroblastoma)): 0.739
combination Emax [1]: 0.412
combination Emax [2]: 0.963
combination Emax [3]: 0.892
combination Emax [4]: 0.401
combination Emax (EW-3 (Ewing's Sarcoma)): 0.626
combination Emax [5]: 0.816
combination Emax [6]: 0.428
combination Emax [7]: 0.597
combination Emax [8]: 0.248
combination Emax (A704 (Kidney Carcinoma)): 0.497
combination Emax [9]: 0.572
combination Emax [10]: 0.936
combination Emax [11]: 0.531

COc1nnc2ccc(N3CCC(c4ccc(OCCN5CCN(C)C(=O)[C@H]5C)cc4)CC3)nn12 [AZD5153] + C[C@@H]1COCCN1C2=NC(=NC(=C2)C3(CC3)[S@](=N)(=O)C)C4=C5C=CNC5=NC=C4 [AZD6738] (first compound max 1 µM, 7x7, partner max 10 µM)
combination Emax (NH-12 (Neuroblastoma)): 0.938
combination Emax [1]: 0.709
combination Emax [2]: 0.975
combination Emax [3]: 0.909
combination Emax [4]: 0.432
combination Emax (EW-3 (Ewing's Sarcoma)): 0.851
combination Emax [5]: 0.921
combination Emax [6]: 0.45
combination Emax [7]: 0.705
combination Emax [8]: 0.321
combination Emax (A704 (Kidney Carcinoma)): 0.681
combination Emax [9]: 0.713
combination Emax [10]: 0.95
combination Emax [11]: 0.693

COc1nnc2ccc(N3CCC(c4ccc(OCCN5CCN(C)C(=O)[C@H]5C)cc4)CC3)nn12 [AZD5153] + Cc1c2c(nn1C)CSCc1cc(n(C)n1)CSc1cc(c3ccccc3c1)OCCCc1c(C(=O)O)n(C)c3c-2c(Cl)ccc13 [AZD5991] (first compound max 1 µM, 7x7, partner max 1 µM)
combination Emax (NH-12 (Neuroblastoma)): 0.672
combination Emax [1]: 0.673
combination Emax [2]: 1
combination Emax [3]: 0.876
combination Emax [4]: 0.427
combination Emax (EW-3 (Ewing's Sarcoma)): 0.908
combination Emax [5]: 0.925
combination Emax [6]: 0.601
combination Emax [7]: 0.534
combination Emax [8]: 0.345
combination Emax (A704 (Kidney Carcinoma)): 0.545
combination Emax [9]: 0.753
combination Emax [10]: 0.936
combination Emax [11]: 0.637

COc1nnc2ccc(N3CCC(c4ccc(OCCN5CCN(C)C(=O)[C@H]5C)cc4)CC3)nn12 [AZD5153] + Cn1cnc2c(F)c(Nc3ccc(Br)cc3Cl)c(C(=O)NOCCO)cc21 [Selumetinib] (first compound max 1 µM, 7x7, partner max 10 µM)
combination Emax (NH-12 (Neuroblastoma)): 0.729
combination Emax [1]: 0.755
combination Emax [2]: 0.975
combination Emax [3]: 0.862
combination Emax [4]: 0.54
combination Emax (EW-3 (Ewing's Sarcoma)): 0.629
combination Emax [5]: 0.575
combination Emax [6]: 0.75
combination Emax [7]: 0.692
combination Emax [8]: 0.368
combination Emax (A704 (Kidney Carcinoma)): 0.855
combination Emax [9]: 0.506
combination Emax [10]: 0.936
combination Emax [11]: 0.83

Cc1c2c(nn1C)CSCc1cc(n(C)n1)CSc1cc(c3ccccc3c1)OCCCc1c(C(=O)O)n(C)c3c-2c(Cl)ccc13 [AZD5991] + C1CN(CCC1(C(=O)N[C@@H](CCO)C2=CC=C(C=C2)Cl)N)C3=NC=NC4=C3C=CN4 [Capivasertib] (first compound max 1 µM, 7x7, partner max 3 µM)
combination Emax (NH-12 (Neuroblastoma)): 0.32
combination Emax [1]: 0.264
combination Emax [2]: 0.989
combination Emax [3]: 0.257
combination Emax [4]: 0.18
combination Emax (EW-3 (Ewing's Sarcoma)): 0.649
combination Emax [5]: 0.129
combination Emax [6]: 0.231
combination Emax [7]: 0.228
combination Emax [8]: 0.647
combination Emax (A704 (Kidney Carcinoma)): 0.306
combination Emax [9]: 0.588
combination Emax [10]: 0.927
combination Emax [11]: 0.576

Cc1c2c(nn1C)CSCc1cc(n(C)n1)CSc1cc(c3ccccc3c1)OCCCc1c(C(=O)O)n(C)c3c-2c(Cl)ccc13 [AZD5991] + CC1(C)CCC(CN2CCN(c3ccc(C(=O)NS(=O)(=O)c4ccc(NCC5CCOCC5)c([N+](=O)[O-])c4)c(Oc4cnc5[nH]ccc5c4)c3)CC2)=C(c2ccc(Cl)cc2)C1 [Venetoclax] (first compound max 1 µM, 7x7, partner max 1 µM)
combination Emax (NH-12 (Neuroblastoma)): 0.892
combination Emax [1]: 0.302
combination Emax [2]: 1
combination Emax [3]: 0.144
combination Emax [4]: 0.239
combination Emax (EW-3 (Ewing's Sarcoma)): 0.953
combination Emax [5]: 0.164
combination Emax [6]: 0.256
combination Emax [7]: 0.128
combination Emax [8]: 0.515
combination Emax (A704 (Kidney Carcinoma)): 0.344
combination Emax [9]: 0.762
combination Emax [10]: 0.95
combination Emax [11]: 0.574

Cc1c2c(nn1C)CSCc1cc(n(C)n1)CSc1cc(c3ccccc3c1)OCCCc1c(C(=O)O)n(C)c3c-2c(Cl)ccc13 [AZD5991] + CCN(CCO)CCCOc1ccc2c(Nc3cc(CC(=O)Nc4cccc(F)c4)[nH]n3)ncnc2c1 [AZD2811] (first compound max 1 µM, 7x7, partner max 1 µM)
combination Emax (NH-12 (Neuroblastoma)): 0.752
combination Emax [1]: 0.425
combination Emax [2]: 0.993
combination Emax [3]: 0.229
combination Emax [4]: 0.264
combination Emax (EW-3 (Ewing's Sarcoma)): 0.771
combination Emax [5]: 0.613
combination Emax [6]: 0.293
combination Emax [7]: 0.241
combination Emax [8]: 0.392
combination Emax (A704 (Kidney Carcinoma)): 0.177
combination Emax [9]: 0.737
combination Emax [10]: 0.95
combination Emax [11]: 0.415

Cc1c2c(nn1C)CSCc1cc(n(C)n1)CSc1cc(c3ccccc3c1)OCCCc1c(C(=O)O)n(C)c3c-2c(Cl)ccc13 [AZD5991] + CN(C)CCCOc1ccc(-c2ccc3ncc4c(c3c2)n(C2CCOCC2)c(=O)n4C)cn1 [AZD0156] (first compound max 1 µM, 7x7, partner max 1 µM)
combination Emax (NH-12 (Neuroblastoma)): 0.226
combination Emax [1]: 0.394
combination Emax [2]: 0.962
combination Emax [3]: 0.395
combination Emax [4]: 0.18
combination Emax (EW-3 (Ewing's Sarcoma)): 0.662
combination Emax [5]: 0.2
combination Emax [6]: 0.269
combination Emax [7]: 0.213
combination Emax [8]: 0.431
combination Emax (A704 (Kidney Carcinoma)): 0.24
combination Emax [9]: 0.37
combination Emax [10]: 0.95
combination Emax [11]: 0.424

Cc1c2c(nn1C)CSCc1cc(n(C)n1)CSc1cc(c3ccccc3c1)OCCCc1c(C(=O)O)n(C)c3c-2c(Cl)ccc13 [AZD5991] + C[C@@H]1COCCN1C2=NC(=NC(=C2)C3(CC3)[S@](=N)(=O)C)C4=C5C=CNC5=NC=C4 [AZD6738] (first compound max 1 µM, 7x7, partner max 10 µM)
combination Emax (NH-12 (Neuroblastoma)): 0.901
combination Emax [1]: 0.516
combination Emax [2]: 0.981
combination Emax [3]: 0.817
combination Emax [4]: 0.259
combination Emax (EW-3 (Ewing's Sarcoma)): 0.892
combination Emax [5]: 0.559
combination Emax [6]: 0.331
combination Emax [7]: 0.666
combination Emax [8]: 0.511
combination Emax (A704 (Kidney Carcinoma)): 0.487
combination Emax [9]: 0.926
combination Emax [10]: 0.965
combination Emax [11]: 0.333

Cc1c2c(nn1C)CSCc1cc(n(C)n1)CSc1cc(c3ccccc3c1)OCCCc1c(C(=O)O)n(C)c3c-2c(Cl)ccc13 [AZD5991] + C[C@@H](Nc1cc(F)cc(F)c1)c1cc(C(=O)N(C)C)cc2c(=O)cc(N3CCOCC3)oc12 [AZD8186] (first compound max 1 µM, 7x7, partner max 3 µM)
combination Emax (NH-12 (Neuroblastoma)): 0.313
combination Emax [1]: 0.318
combination Emax [2]: 0.949
combination Emax [3]: 0.219
combination Emax [4]: 0.254
combination Emax (EW-3 (Ewing's Sarcoma)): 0.636
combination Emax [5]: 0.196
combination Emax [6]: 0.378
combination Emax [7]: 0.288
combination Emax [8]: 0.476
combination Emax (A704 (Kidney Carcinoma)): 0.496
combination Emax [9]: 0.534
combination Emax [10]: 0.93
combination Emax [11]: 0.439

Cc1c2c(nn1C)CSCc1cc(n(C)n1)CSc1cc(c3ccccc3c1)OCCCc1c(C(=O)O)n(C)c3c-2c(Cl)ccc13 [AZD5991] + Cc1cc2ncnn2cc1Nc1ncc2c(n1)n(C1CCOCC1)c(=O)n2C [AZD7648] (first compound max 1 µM, 7x7, partner max 10 µM)
combination Emax (NH-12 (Neuroblastoma)): 0.226
combination Emax [1]: 0.673
combination Emax [2]: 0.968
combination Emax [3]: 0.362
combination Emax [4]: 0.2
combination Emax (EW-3 (Ewing's Sarcoma)): 0.727
combination Emax [5]: 0.215
combination Emax [6]: 0.26
combination Emax [7]: 0.228
combination Emax [8]: 0.479
combination Emax (A704 (Kidney Carcinoma)): 0.259
combination Emax [9]: 0.456
combination Emax [10]: 0.946
combination Emax [11]: 0.412

Cc1c2c(nn1C)CSCc1cc(n(C)n1)CSc1cc(c3ccccc3c1)OCCCc1c(C(=O)O)n(C)c3c-2c(Cl)ccc13 [AZD5991] + Cn1cnc2c(F)c(Nc3ccc(Br)cc3Cl)c(C(=O)NOCCO)cc21 [Selumetinib] (first compound max 1 µM, 7x7, partner max 3 µM)
combination Emax (NH-12 (Neuroblastoma)): 0.568
combination Emax [1]: 0.586
combination Emax [2]: 1
combination Emax [3]: 0.112
combination Emax [4]: 0.749
combination Emax (EW-3 (Ewing's Sarcoma)): 0.549
combination Emax [5]: 0.174
combination Emax [6]: 0.654
combination Emax [7]: 0.462
combination Emax [8]: 0.563
combination Emax (A704 (Kidney Carcinoma)): 0.306
combination Emax [9]: 0.402
combination Emax [10]: 0.938
combination Emax [11]: 0.695
